From US20040009956A1, “Inhibition of protein tyrosine phosphatases and SH2 domains by a neutral phosphotyrosine mimetic” (priority 2002, published 2004)
“And” between values parts separate entries of the source, which are not always exact repeats. Equal values may be shown once. Read-outs that look alike come from different tables or passages of the source. Each block holds one compound with its values, some of them ahead of it.

Legend:
Format in all cases: biochemical
VHR = target: T1, VHR (Homo sapiens, UniProt P51452); assay: PTP inhibition assay (pNPP hydrolysis), dual-specificity phosphatase VHR
T1 construct: made in house; host or cells: Escherichia coli
Procedure: (§1) PTP Inhibition Assays. Stock solutions of inhibitors were prepared in dimethyl sulfoxide (DMSO) and their concentrations were calculated from the known inhibitor masses and solvent volumes. A typical reaction (total volume 1 mL) contained 50 mM HEPES (pH 7.4), 1 mM EDTA, 1 mM tris(carboxyethyl)phosphine (TCEP), 50 mM NaCl, 5% (v/v) DMSO, 0.1-0.2 μM PTP, and 0-2000 μM inhibitor. After incubation of the enzyme with the inhibitor for 1 h at room temperature, the reaction was initiated by the addition of 1.0 mM p-nitrophenyl phosphate (pNPP). The reaction progress was monitored at 405 nm on a Perkin-Elmer UV-Vis spectrophotometer. The IC50 values were determined by plotting the remaining activity as a function of inhibitor concentration, and the K1* values were obtained by fitting the data to the Michaelis-Menten equation. To determine the K1 value, the reaction was initiated by addition of enzyme (0.2 μM) into the above reaction mixture, which also contained 1.0 mM pNPP. The reaction was monitored continuously on the UV-Vis spectrophotometer and the initial reaction rates (<15 s) were fitted to the Michaelis-Menten equation.

SHP-1 = target: T2, SHP-1 (Homo sapiens, UniProt P29350); assay: PTP inhibition assay (pNPP hydrolysis), catalytic domain of SHP-1, SHP-1(ΔSH2)
T2 construct: The catalytic domain of SHP-1, SHP-1(ΔSH2), was purified from a recombinant Escherichia coli strain; made in house; host or cells: Escherichia coli
Procedure: as §1

PTP1B = target: T3, PTP1B (Homo sapiens, UniProt P18031); assay: PTP inhibition assay (pNPP hydrolysis), PTP1B
T3 construct: made in house; host or cells: Escherichia coli
T3 sequence (P18031 1-435): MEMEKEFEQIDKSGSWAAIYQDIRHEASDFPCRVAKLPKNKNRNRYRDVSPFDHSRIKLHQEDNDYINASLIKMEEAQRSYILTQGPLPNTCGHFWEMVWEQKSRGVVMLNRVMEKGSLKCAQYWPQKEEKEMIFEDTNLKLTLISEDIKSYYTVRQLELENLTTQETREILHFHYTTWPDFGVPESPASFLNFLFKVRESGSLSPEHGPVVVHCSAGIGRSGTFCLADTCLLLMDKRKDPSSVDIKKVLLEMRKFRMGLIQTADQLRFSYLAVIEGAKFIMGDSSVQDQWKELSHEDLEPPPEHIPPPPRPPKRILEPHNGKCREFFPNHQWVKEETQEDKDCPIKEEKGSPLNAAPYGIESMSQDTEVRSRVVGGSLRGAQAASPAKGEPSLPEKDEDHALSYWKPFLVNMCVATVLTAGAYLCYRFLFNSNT
Procedure: as §1
To determine the rate constant κ6, the enzyme (1.0 μM) was incubated with 50-100 μM inhibitor in 100 μL of the above reaction buffer for 3 h at room temperature. The mixture was rapidly diluted into 900 μL of the same reaction buffer containing 1.0 mM pNPP (without inhibitor). Reactivation of PTP activity was monitored at 405 nm and the progress curves were fit to the equation
where νs is the final steady-state velocity. The rate constant κ5 was calculated using the equation
Inactivation of Inhibitor Cinn-GEE by Cysteamine. Cinn-GEE (1 mM) was incubated with 100 mM cysteamine hydrochloride (which had been neutralized by the addition of 1.0 equivalent of NaOH) in 100 μL of a 97:3 DMSO/H2O mixture for 24 h. The treated inhibitor was then used in inhibition assays as described above. As a control, inhibition assay also performed with the same amount of cysteamine hydrochloride/NaOH solution.

[1] = slow-binding inhibition, 1 h preincubation, 1.0 mM pNPP, read-out: KI* (overall equilibrium inhibition constant)
[2] = 1 h preincubation with inhibitor, 1.0 mM pNPP, pH 7.4

T1 sequence (P51452 whole entry, species assumed): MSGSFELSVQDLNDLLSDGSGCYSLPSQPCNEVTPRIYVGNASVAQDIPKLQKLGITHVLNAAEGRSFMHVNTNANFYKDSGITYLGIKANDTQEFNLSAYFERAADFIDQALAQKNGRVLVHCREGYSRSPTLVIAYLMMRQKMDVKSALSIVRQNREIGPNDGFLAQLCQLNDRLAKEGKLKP
T2 sequence (P29350 214-595): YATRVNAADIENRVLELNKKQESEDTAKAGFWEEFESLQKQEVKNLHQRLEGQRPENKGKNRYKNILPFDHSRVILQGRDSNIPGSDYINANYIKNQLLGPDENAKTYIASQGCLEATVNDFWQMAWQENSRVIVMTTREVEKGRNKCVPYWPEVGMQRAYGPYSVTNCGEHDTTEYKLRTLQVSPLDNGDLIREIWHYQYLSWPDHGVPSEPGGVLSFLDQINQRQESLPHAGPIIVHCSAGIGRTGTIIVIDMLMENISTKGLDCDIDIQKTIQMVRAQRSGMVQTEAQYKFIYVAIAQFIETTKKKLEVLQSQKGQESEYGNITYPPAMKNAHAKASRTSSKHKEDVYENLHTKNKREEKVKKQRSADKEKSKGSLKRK

SMILES: O=Cc1ccccc1 [Compound 1, Benzaldehyde, reference compound]
Inhibitory activity (in words) (VHR): least active
Inhibitory activity (in words) (SHP-1): least active
Inhibitory activity (in words) (PTP1B): least active

Ki (VHR; [1]): 288 µM
Ki (SHP-1; [1]): 10.7 µM
κ6, rate for reactivation of PTP1B (PTP1B; E·I* complex preformed 3 h, diluted 10-fold into 1.0 mM pNPP): 0.56 min⁻¹
κ5, rate for conversion of noncovalent E·I complex to covalent complex (PTP1B; calculated from K1*=K1κ6/(κ5+κ6)): 56 min⁻¹
Ki (PTP1B; initial reaction rates (<15 s), reaction initiated by enzyme, read-out: K1, equilibrium inhibition constant for the initial complex E·I): 550 µM
Inhibitory activity against PTP1B after treatment of inhibitor with cysteamine (PTP1B; prior treatment with excess cysteamine): abolished
Ki (PTP1B; [1]): 5.4 µM and 5.42 µM
SMILES: NC(=O)C(CCC(=O)O)NC(=O)C(CCC(=O)O)NC(=O)CNC(=O)c1ccc(C=CC=O)cc1 (stereo not drawn) [Compound 5, N-[4-(3-Oxo-1-propenyl)benzoyl]-Gly-Glu-Glu-NH2]

IC50 (VHR; [2]): > 2000 µM
Inhibition against VHR (VHR; up to 2 mM): no significant inhibition
IC50 (SHP-1; [2]): 230 µM
IC50 (PTP1B; [2]): 970 µM
SMILES: O=CC=Cc1ccc(C(=O)O)cc1 [Compound 3, 4-(3-Oxo-1-propenyl)benzoic acid]
